US8658661B2, “Oxadiazole inhibitors of leukotriene production” (Boehringer Ingelheim International GmbH, priority 2010, dated 2014)

Key:
[1] = target: T1, recombinant human FLAP protein (Homo sapiens, UniProt P20292); experiment: FLAP binding assay (SPA, displacement of [125I]L-691,831); conditions: membranes of sf9 cells expressing recombinant human FLAP; [125I]L-691,831 probe; read-out: FLAP binding IC50
T1 construct: made in house; host or cells: Sf9 insect cells (100,000×g membrane pellet used)
T1 sequence (P20292 1-161): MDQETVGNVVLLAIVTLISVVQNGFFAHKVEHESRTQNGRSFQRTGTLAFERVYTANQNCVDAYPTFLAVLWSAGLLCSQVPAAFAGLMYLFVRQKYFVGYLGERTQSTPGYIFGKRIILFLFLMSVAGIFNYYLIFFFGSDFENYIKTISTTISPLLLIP
Method in brief: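 Membranes from sf9 cells expressing human FLAP in pH 7.5 Tris buffer (MgCl2, EDTA, PMSF). Non-specific binding defined with 10 μM cold L-691,831.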

[2] = test system: synthesis of LTB4 in human whole blood; experiment: Human whole blood assay (inhibition of LTB4 synthesis, calcimycin stimulated); assay type: cell-based; conditions: heparinized human whole blood, calcimycin 20 μM, plasma LTB4
Method in brief: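 LTB4 levels in plasma were measured by antibody-based HTRF after heparinized human whole blood, pretreated with compound (15 min, 37° C), was challenged with 20 μM calcimycin for 30 min at 37° C.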

SMILES	IC50 [1]	IC50 [2]
CC(C)(CO)Nc1ccc(-c2nc(C(C)(C)c3ccc(-c4cnc(N)nc4)cc3)no2)cn1 [Example 72, 2-{[5-(3-{2-[4-(2-aminopyrimidin-5-yl)phenyl]propan-2-yl}-1,2,4-oxadiazol-5-yl)pyridin-2-yl]amino}-2-methylpropan-1-ol]	0.012 µM	0.44 µM
CC(C)C(C)(c1ccc(-c2cnc(N)nc2)cc1)c1noc(N2C3CCC2CC(O)C3)n1 (centres unmarked) [Example 235, 8-(3-{1-[4-(2-Amino-pyrimidin-5-yl)-phenyl]-1,2-dimethyl-propyl}-[1,2,4]oxadiazol-5-yl)-8-aza-bicyclo[3.2.1]octan-3-ol]	0.029 µM	0.78 µM
CC(C)C(C)(c1ccc(-c2cnc(N)nc2)cc1)c1noc(N2CCN(C(C)(C)C)CC2)n1 (centres unmarked) [Example 261, 5-(4-{1-[5-(4-tert-Butyl-piperazin-1-yl)-[1,2,4]oxadiazol-3-yl]-1,2-dimethyl-propyl}-phenyl)-pyrimidin-2-ylamine]	0.011 µM	0.19 µM
CC(C)C(C)(c1ccc(-c2cnc(N)nc2)cc1)c1noc(-c2cccc(S(C)(=O)=O)c2)n1 (centres unmarked) [Example 148, 5-[4-(3-methyl-2-{5-[3-(methylsulfonyl)phenyl]-1,2,4-oxadiazol-3-yl}butan-2-yl)phenyl]pyrimidin-2-amine]	0.014 µM	0.61 µM
CN(C)C(=O)Cn1cc(-c2nc(C(C)(c3ccc(-c4cnc5c(c4)CCN5)cc3)C3CC3)no2)cn1 (centres unmarked) [Example 241, 2-[4-(3-{1-Cyclopropyl-1-[4-(2,3-dihydro-1H-pyrrolo[2,3-b]pyridin-5-yl)-phenyl]-ethyl}-[1,2,4]oxadiazol-5-yl)-pyrazol-1-yl]-N,N-dimethyl-acetamide]	0.0034 µM	0.17 µM
CC(C)C(C)(c1ccc(-c2cnc(N)nc2)cc1)c1noc(NCCO)n1 (centres unmarked) [Example 80, 2-[(3-{2-[4-(2-aminopyrimidin-5-yl)phenyl]-3-methylbutan-2-yl}-1,2,4-oxadiazol-5-yl)amino]ethanol]	0.023 µM	0.35 µM
Cc1cc(-c2ccc([C@](C)(c3noc(-c4cnn(CC(C)(C)O)c4)n3)C3CC3)cc2)cnc1N [Example 179, 1-[4-(3-{(R)-1-[4-(6-Amino-5-methyl-pyridin-3-yl)-phenyl]-1-cyclopropyl-ethyl}-[1,2,4]oxadiazol-5-yl)-pyrazol-1-yl]-2-methyl-propan-2-ol]	0.0046 µM	0.049 µM
Cn1cc(-c2nc(C(c3ccc(-c4cnc(N)nc4)cc3)C(C)(C)C)no2)cn1 (centres unmarked) [Example 58, 5-(4-{2,2-dimethyl-1-[5-(1-methyl-1H-pyrazol-4-yl)-1,2,4-oxadiazol-3-yl]propyl}phenyl)pyrimidin-2-amine]	0.011 µM	0.19 µM
CNc1ncc(-c2ccc([C@](C)(c3noc(-c4cnn(CC(=O)N(C)C)c4)n3)C3CC3)cc2)cn1 [Example 226, 2-[4-(3-{(R)-1-Cyclopropyl-1-[4-(2-methylamino-pyrimidin-5-yl)-phenyl]-ethyl}-[1,2,4]oxadiazol-5-yl)-pyrazol-1-yl]-N,N-dimethyl-acetamide]	0.002 µM	0.03 µM
Cc1ccc(-c2nc(C(C)(c3ccc(-c4cnc(N)nc4)cc3)C(C)C)no2)c(O)n1 (centres unmarked) [Example 157, 3-(3-{2-[4-(2-aminopyrimidin-5-yl)phenyl]-3-methylbutan-2-yl}-1,2,4-oxadiazol-5-yl)-6-methylpyridin-2-ol]	0.0033 µM	0.76 µM
COc1ncc(-c2nc(C(C)(c3ccc(-c4cnc(N)nc4)cc3)C(C)C)no2)cn1 (centres unmarked) [Example 155, 5-(4-{2-[5-(2-methoxypyrimidin-5-yl)-1,2,4-oxadiazol-3-yl]-3-methylbutan-2-yl}phenyl)pyrimidin-2-amine]	0.0019 µM	0.081 µM
CN(C)C(=O)Cn1cc(-c2nc(C(C)(c3ccc(-c4ncc(N)nc4C#N)cc3)C3CC3)no2)cn1 (centres unmarked) [Example 295, 2-[4-(3-{1-[4-(5-Amino-3-cyano-pyrazin-2-yl)-phenyl]-1-cyclopropyl-ethyl}-[1,2,4]oxadiazol-5-yl)-pyrazol-1-yl]-N,N-dimethyl-acetamide]	0.0075 µM	0.15 µM
CC(C)C(C)(c1ccc(-c2cnc(N)nc2)cc1)c1noc(N2CCN(CC(C)(C)O)CC2)n1 (centres unmarked) [Example 211, 1-[4-(3-{1-[4-(2-Amino-pyrimidin-5-yl)-phenyl]-1,2-dimethyl-propyl}-[1,2,4]oxadiazol-5-yl)-piperazin-1-yl]-2-methyl-propan-2-ol]	0.012 µM	0.23 µM
CNC(=O)Cn1cc(-c2nc(C(C)(C)c3ccc(-c4cnc(N)nc4)cc3)no2)cn1 [Example 79, 2-[4-(3-{2-[4-(2-aminopyrimidin-5-yl)phenyl]propan-2-yl}-1,2,4-oxadiazol-5-yl)-1H-pyrazol-1-yl]-N-methylacetamide]	0.15 µM	2.2 µM
CC(C)C(C)(c1ccc(-c2cnc(N)nc2)cc1)c1noc(CC(C)(C)C(=O)O)n1 (centres unmarked) [Example 93, 3-(3-{2-[4-(2-aminopyrimidin-5-yl)phenyl]-3-methylbutan-2-yl}-1,2,4-oxadiazol-5-yl)-2,2-dimethylpropanoic acid]	0.24 µM	> 5 µM
CC(C)C(C)(c1ccc(-c2cnc(N)nc2)cc1)c1noc(N2CC(C)(O)C2)n1 (centres unmarked) [Example 203, 1-(3-{1-[4-(2-Amino-pyrimidin-5-yl)-phenyl]-1,2-dimethyl-propyl}-[1,2,4]oxadiazol-5-yl)-3-methyl-azetidin-3-ol]	0.015 µM	0.13 µM

Results, then the compound that gave them:

IC50 [1]	IC50 [2]	SMILES
0.0082 µM	0.1 µM	CC(C)C(C)(c1ccc(-c2cnc(N)nc2)cc1)c1noc(N2CCC(CO)CC2)n1 (centres unmarked) [Example 209, [1-(3-{1-[4-(2-Amino-pyrimidin-5-yl)-phenyl]-1,2-dimethyl-propyl}-[1,2,4]oxadiazol-5-yl)-piperidin-4-yl]-methanol]
0.005 µM	0.06 µM	COCCn1cc(-c2nc(C(C)(c3ccc(-c4cnc(N)nc4)cc3)C3CC3)no2)cn1 (centres unmarked) [Example 30, 5-[4-(1-cyclopropyl-1-{5-[1-(2-methoxyethyl)-1H-pyrazol-4-yl]-1,2,4-oxadiazol-3-yl}ethyl)phenyl]pyrimidin-2-amine]
0.0021 µM	0.11 µM	CC(C)(O)CNc1ccc(-c2nc(C(C)(c3ccc(-c4cnc(N)nc4)cc3)C3CC3)no2)cn1 (centres unmarked) [Example 39, 1-{[5-(3-{1-[4-(2-aminopyrimidin-5-yl)phenyl]-1-cyclopropylethyl}-1,2,4-oxadiazol-5-yl)pyridin-2-yl]amino}-2-methylpropan-2-ol]
0.014 µM	0.33 µM	CC(C)C(C)(c1ccc(-c2cnc(N)nc2)cc1)c1noc(N2CCC(C(N)=O)CC2)n1 (centres unmarked) [Example 213, 1-(3-{1-[4-(2-Amino-pyrimidin-5-yl)-phenyl]-1,2-dimethyl-propyl}-[1,2,4]oxadiazol-5-yl)-piperidine-4-carboxylic acid amide]
0.0022 µM	0.15 µM	CC(C)(O)CNc1cnc(-c2nc(C(C)(c3ccc(-c4cnc(N)nc4)cc3)C3CC3)no2)cn1 (centres unmarked) [Example 44, 1-{[5-(3-{1-[4-(2-aminopyrimidin-5-yl)phenyl]-1-cyclopropylethyl}-1,2,4-oxadiazol-5-yl)pyrazin-2-yl]amino}-2-methylpropan-2-ol]
0.006 µM	0.096 µM	COCCN(C)C(=O)Cn1cc(-c2nc([C@@](C)(c3ccc(-c4cnc(N)nc4)cc3)C3CC3)no2)cn1 [Example 194, 2-[4-(3-{(R)-1-[4-(2-Amino-pyrimidin-5-yl)-phenyl]-1-cyclopropyl-ethyl}-[1,2,4]oxadiazol-5-yl)-pyrazol-1-yl]-N-(2-methoxy-ethyl)-N-methyl-acetamide]
0.04 µM	0.2 µM	CC(c1ccc(-c2cnc(N)nc2)cc1)(c1noc(N2CC(O)C2)n1)C1CC1 (centres unmarked) [Example 274, 1-(3-{1-[4-(2-Amino-pyrimidin-5-yl)-phenyl]-1-cyclopropyl-ethyl}-[1,2,4]oxadiazol-5-yl)-azetidin-3-ol]
0.012 µM	0.33 µM	Cn1nccc1-c1nc(C(C)(c2ccc(-c3cnc(N)nc3)cc2)C2CC2)no1 (centres unmarked) [Example 27, 5-(4-{1-cyclopropyl-1-[5-(1-methyl-1H-pyrazol-5-yl)-1,2,4-oxadiazol-3-yl]ethyl}phenyl)pyrimidin-2-amine]
0.0085 µM	0.079 µM	CN(c1nc(C(C)(c2ccc(-c3cnc(N)nc3)cc2)C2CC2)no1)C1CCC(O)CC1 (centres unmarked) [Example 297, 4-[(3-{1-[4-(2-Amino-pyrimidin-5-yl)-phenyl]-1-cyclopropyl-ethyl}-[1,2,4]oxadiazol-5-yl)-methyl-amino]-cyclohexanol]
0.15 µM	2 µM	CN(C)C(=O)Cn1cc(-c2nc([C@](C)(c3ccc(-c4cnc(N)nc4)cc3)C3CC3)no2)cn1 (single isomer, unassigned) [Example 116]
0.04 µM	2.1 µM	CC(C)C(C)(c1ccc(-c2cnc(N)nc2)cc1)c1noc(C2(C)CCCCC2)n1 (centres unmarked) [Example 120, 5-(4-{3-methyl-2-[5-(1-methylcyclohexyl)-1,2,4-oxadiazol-3-yl]butan-2-yl}phenyl)pyrimidin-2-amine]
0.0075 µM	0.28 µM	CC(C)C(C)(c1ccc(-c2cnc(N)nc2)cc1)c1noc(N2CCC(C(C)(C)O)CC2)n1 (centres unmarked) [Example 198, 2-[1-(3-{1-[4-(2-Amino-pyrimidin-5-yl)-phenyl]-1,2-dimethyl-propyl}-[1,2,4]oxadiazol-5-yl)-piperidin-4-yl]-prop an-2-ol]
